From patent US5200505A, “R106 compounds” (Takara Shuzo Co., Ltd., priority 1990, dated 1993) come the findings set out here.

Molecules are shown by their SMILES. Numbered stars: 1 amine (or outer) side, 2 acyl side, 3 side chain; on linkers, the order of the positions; unused ones are H or OH. Square brackets hold non-standard residues; d marks the D form. Peptide text beside a SMILES is read from it. NMePhe(3-F) = CN[C@@H](Cc1cccc(F)c1)C(=O)O; NMePhe(2-F) = CN[C@@H](Cc1ccccc1F)C(=O)O; NMeVal(β-OH) = CN[C@H](C(=O)O)C(C)(C)O; Phe(3-F) = N[C@@H](Cc1cccc(F)c1)C(=O)O; Phe(2-F) = N[C@@H](Cc1ccccc1F)C(=O)O; NMeY = CN[C@@H](Cc1ccc(O)cc1)C(=O)O; NMeF = CN[C@@H](Cc1ccccc1)C(=O)O; aIle = CC[C@@H](C)[C@H](N)C(=O)O; X1 = CCC(C)C(O[*:1])C(=O)[*:2]; NMeV = CN[C@H](C(=O)O)C(C)C; NMeS = CN[C@@H](CO)C(=O)O; Thz = O=C(O)[C@@H]1CSCN1

The data set in a line: Solubility in water. Conditions: compared with antibiotics R106. Format: physicochemical.

Turning to `CCC(C)C1OC(=O)[C@H](C(C)(C)O)N(C)C(=O)[C@H](CC(C)C)NC(=O)[C@H](C(C)C)N(C)C(=O)[C@H]([C@H](C)CC)NC(=O)[C@@H]2CCCN2C(=O)[C@H](CO)N(C)C(=O)[C@H](Cc2ccccc2)NC(=O)[C@H](C(C)C)N(C)C1=O` (stereo partly drawn) [Compound 9] (cyclo(F[NMeS]P[aIle][NMeV]L[NMeVal(β-OH)][X1][NMeV])), the solubility in water result was “higher”.

`CCC(C)C1OC(=O)[C@H](C(C)(C)O)N(C)C(=O)[C@H](CC(C)C)NC(=O)[C@H](C(C)C)N(C)C(=O)[C@H]([C@H](C)CC)NC(=O)[C@@H]2CSCN2C(=O)[C@H](Cc2ccccc2)N(C)C(=O)[C@H](Cc2ccccc2)NC(=O)[C@H](C(C)C)N(C)C1=O` (stereo partly drawn) [Compound 5] (cyclo(F[NMeF][Thz][aIle][NMeV]L[NMeVal(β-OH)][X1][NMeV])): the solubility in water entry is “higher”.

For the compound `CCC(C)C1OC(=O)[C@H](C(C)(C)O)N(C)C(=O)[C@H](CC(C)C)NC(=O)[C@H](C(C)C)N(C)C(=O)[C@H]([C@H](C)CC)NC(=O)[C@@H]2CCCN2C(=O)[C@H](Cc2cccc(F)c2)N(C)C(=O)[C@H](Cc2cccc(F)c2)NC(=O)[C@H](C(C)C)N(C)C1=O` (stereo partly drawn) [Compound 2] (cyclo(L[NMeVal(β-OH)][X1][NMeV][Phe(3-F)][NMePhe(3-F)]P[aIle][NMeV])), the solubility in water result is recorded as “higher”.

Regarding `CCC(C)C1OC(=O)[C@H](C(C)(C)O)N(C)C(=O)[C@H](CC(C)C)NC(=O)[C@H](C(C)C)N(C)C(=O)[C@H]([C@H](C)CC)NC(=O)[C@@H]2CCCN2C(=O)[C@H](Cc2ccccc2F)N(C)C(=O)[C@H](Cc2ccccc2F)NC(=O)[C@H](C(C)C)N(C)C1=O` (stereo partly drawn) [Compound 1] (cyclo(L[NMeVal(β-OH)][X1][NMeV][Phe(2-F)][NMePhe(2-F)]P[aIle][NMeV])), the solubility in water entry is reported as “higher”.

For `CCC(C)C1OC(=O)[C@H](C(C)(C)O)N(C)C(=O)[C@H](CC(C)C)NC(=O)[C@H](C(C)C)N(C)C(=O)[C@H]([C@H](C)CC)NC(=O)[C@@H]2CCCN2C(=O)[C@H](Cc2ccc(O)cc2)N(C)C(=O)[C@H](Cc2ccc(O)cc2)NC(=O)[C@H](C(C)C)N(C)C1=O` (stereo partly drawn) [Compound 3] (cyclo(L[NMeVal(β-OH)][X1][NMeV]Y[NMeY]P[aIle][NMeV])), the solubility in water entry is given as “higher”.
